Where two headings read alike, the source gives them in different places.
Tested on: reverse transcriptase
Experimental: Thaw all components, except the reverse transcriptase, at room temperature. Mix gently, but thoroughly, and then centrifuge at 4° C. to collect contents to the bottom of the tube. Chill on ice before using. Centrifuge again briefly at 4° C. if needed.
To a mixture of Taq DNA polymerase, dNTP (dATP, dCTP, dGTP and dTTP), magnesium chloride, stabilizers and SdC, is added a forward primer, a reverse primer, nuclease-free water and a reverse transcriptase. Assemble the reaction cocktail with all required components except sample template (total RNA) and dispense equal aliquots into each reaction tube. Add target sample (RNA template) to each reaction as the final step 5-10 μl volumes.
The reaction mixture is then incubated in a real-time thermal detection system as follows: • cDNA synthesis: 10 min at 50° C. • reverse transcriptase inactivation: 5 min at 95° C. • PCR cycling and detection (30 to 45 cycles): 10 sec at 95° C., followed by 30 sec at 55° C. to 60° C.

Compound	inhibition of reverse transcriptase in one-step RT-PCR (4 ng/μl suramin vs absence)	specificity of one-step RT-PCR (4 ng/μl suramin vs absence)	inhibition of reverse transcriptase in one-step RT-PCR (0.1, 0.5, 2 and 10 nM SdC)	specificity of one-step RT-PCR (0.1, 0.5, 2 and 10 nM SdC)
Cc1ccc(C(=O)Nc2ccc(S(=O)(=O)O)c3cc(S(=O)(=O)O)cc(S(=O)(=O)O)c23)cc1NC(=O)c1cccc(NC(=O)Nc2cccc(C(=O)Nc3cc(C(=O)Nc4ccc(S(=O)(=O)O)c5cc(S(=O)(=O)O)cc(S(=O)(=O)O)c45)ccc3C)c2)c1 [suramin]	reduces the inhibition of reverse transcriptase	significantly improves the specificity of one-step RT-PCR		
phosphorothioate oligodeoxycytosine [SdC]			reduces the inhibition of reverse transcriptase	significantly improves the specificity of one-step RT-PCR

Reference: patent US9200318B2, “Reduced inhibition of one-step RT-PCR” (Bio Rad Laboratories, Inc., priority 2007, dated 2015)
